Tested on: endometriotic lesions
Test: Endometriosis animal model, lesion size and histology
Assay type: in vivo, C57/BL6 mice
Details: fraxetin 30mg/kg orally for four weeks
Experimental: Seven-week-old female C57/BL6 mice were purchased from DBL (Eumseong, South Korea). After a 7-day acclimation period, they were subcutaneously injected with 2 mg/50 μL of progesterone two days before surgery. After anesthetizing the mice, the […] was excised and autografted onto the peritoneum to induce endometriosis. After culturing for two weeks, the mice were randomly assigned to groups and administered either a vehicle as the control, fraxetin at 30mg/kg, or dienogest at 1 mg/kg orally for four weeks.
For histological analysis, tissues were lesion prepared as paraffin blocks and sectioned onto slides. Hematoxylin-eosin (H&E) staining was performed using Mayer's hemalum solution and a Prussian Blue staining kit (Cat. Ab150674, Abcam) histological analysis and for immunohistochemistry. Immunohistochemistry was conducted using an avidin-biotin complex kit (Cat. PK-4001, Vector Laboratories).

COc1cc2ccc(=O)oc2c(O)c1O [fraxetin]
immune cell infiltration (tissue after iron staining): increase
size of endometriotic lesions (vs vehicle control): significantly reduced

Source: patent publication US20250302799A1, “PHARMACEUTICAL COMPOSITION CONTAINING FRAXETIN FOR PREVENTION OR TREATMENT OF ENDOMETRIOSIS” (Research & Business Foundation Sungkyunkwan University, priority 2024, published 2025)
